{"source": "ChEMBL document CHEMBL5723035", "about": "“Affinity Biochemical Literature for EUbOPEN Chemogenomic Library” (2024)", "design_in_all_cases": "mode of action Inhibitor, recommended concentration 1 uM", "key": {"[1]": {"target": "T1, Histone-lysine N-methyltransferase SETD7 (Homo sapiens, UniProt Q8WTS6)", "T1 sequence (Q8WTS6 whole entry)": "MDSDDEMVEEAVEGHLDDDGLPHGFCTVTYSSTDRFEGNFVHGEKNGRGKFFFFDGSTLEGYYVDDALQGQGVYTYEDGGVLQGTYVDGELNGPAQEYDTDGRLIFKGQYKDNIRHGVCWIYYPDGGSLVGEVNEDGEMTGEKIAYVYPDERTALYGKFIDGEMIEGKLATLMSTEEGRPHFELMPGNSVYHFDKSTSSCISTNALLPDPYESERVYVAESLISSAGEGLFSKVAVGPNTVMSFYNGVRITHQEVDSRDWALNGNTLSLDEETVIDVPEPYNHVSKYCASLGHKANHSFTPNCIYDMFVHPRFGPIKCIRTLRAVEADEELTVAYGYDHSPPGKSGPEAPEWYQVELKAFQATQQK", "assay": "Affinity Biochemical interaction: (inhibition of histone H3(1-21) methylation) EUB0002319a SETD7", "assay_type": "functional"}, "[2]": {"target": "T1, Histone-lysine N-methyltransferase SETD7", "assay": "Affinity Biochemical interaction: (inhibition of histone H3 methylation) EUB0002319a SETD7", "assay_type": "functional"}, "[3]": {"target": "T2, Protein arginine N-methyltransferase 5 (Homo sapiens, UniProt O14744)", "T2 sequence (O14744 whole entry)": "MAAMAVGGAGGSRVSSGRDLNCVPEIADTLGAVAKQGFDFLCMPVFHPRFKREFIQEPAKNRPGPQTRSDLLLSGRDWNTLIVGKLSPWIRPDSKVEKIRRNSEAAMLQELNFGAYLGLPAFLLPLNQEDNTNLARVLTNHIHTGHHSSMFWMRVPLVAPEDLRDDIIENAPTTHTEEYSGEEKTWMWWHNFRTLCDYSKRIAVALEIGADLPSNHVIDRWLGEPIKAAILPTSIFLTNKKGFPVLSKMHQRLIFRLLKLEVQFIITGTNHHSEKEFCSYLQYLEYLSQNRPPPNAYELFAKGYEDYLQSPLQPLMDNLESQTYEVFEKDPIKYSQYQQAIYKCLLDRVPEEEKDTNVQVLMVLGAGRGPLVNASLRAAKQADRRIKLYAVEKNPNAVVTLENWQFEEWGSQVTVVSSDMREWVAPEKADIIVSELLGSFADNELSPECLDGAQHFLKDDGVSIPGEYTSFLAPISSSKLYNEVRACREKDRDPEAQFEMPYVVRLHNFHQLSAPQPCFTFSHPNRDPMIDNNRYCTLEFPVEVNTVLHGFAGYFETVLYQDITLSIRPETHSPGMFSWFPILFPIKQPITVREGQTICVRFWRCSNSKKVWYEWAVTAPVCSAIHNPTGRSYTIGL", "assay": "Affinity Biochemical interaction: (inhibition of histone H4 (1-21) methylation) EUB0002319a PRMT5", "assay_type": "functional"}, "[4]": {"target": "T2, Protein arginine N-methyltransferase 5", "assay": "Affinity Biochemical interaction: (inhibition of histone H4 methylation) EUB0002319a PRMT5", "assay_type": "functional"}, "[5]": {"target": "Synaptic vesicular amine transporter (Homo sapiens, UniProt Q05940)", "assay": "Affinity Biochemical interaction: (Inhibition of radiolabelled [3H]dopamine uptake) EUB0002590aCl SLC18A2"}, "[6]": {"target": "Bromodomain-containing protein 4 (Homo sapiens, UniProt O60885)", "assay": "Affinity Biochemical interaction: (TR-FRET) EUB0002661a BRD4", "assay_type": "functional"}, "[7]": {"target": "T3, Equilibrative nucleoside transporter 1 (Homo sapiens, UniProt Q99808)", "T3 sequence (Q99808 whole entry)": "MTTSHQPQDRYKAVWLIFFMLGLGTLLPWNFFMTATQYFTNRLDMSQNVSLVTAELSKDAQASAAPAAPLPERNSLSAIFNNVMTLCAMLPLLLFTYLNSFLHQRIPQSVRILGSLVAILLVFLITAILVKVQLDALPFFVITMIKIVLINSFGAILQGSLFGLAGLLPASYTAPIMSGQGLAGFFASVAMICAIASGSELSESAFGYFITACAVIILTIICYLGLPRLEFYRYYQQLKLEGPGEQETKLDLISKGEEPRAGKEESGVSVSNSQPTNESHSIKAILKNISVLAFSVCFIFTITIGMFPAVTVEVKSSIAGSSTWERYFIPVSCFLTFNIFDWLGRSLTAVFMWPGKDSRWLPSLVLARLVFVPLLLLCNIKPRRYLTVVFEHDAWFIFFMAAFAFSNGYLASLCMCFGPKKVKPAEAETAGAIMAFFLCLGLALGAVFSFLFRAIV", "assay": "Affinity Biochemical interaction: (inhibition of [3H]nitrobenzylthioinosine binding to SLC29A1 in membranes) EUB0002560a SLC29A1", "assay_type": "cell membranes"}, "[8]": {"target": "T3, Equilibrative nucleoside transporter 1", "assay": "Affinity Biochemical interaction: (radioligand binding assay, inhibition of [3H]S-(4-Nitrobenzyl)-6-thioinosine binding to target) EUB0002560a SLC29A1"}, "[9]": {"target": "cGMP-dependent 3',5'-cyclic phosphodiesterase (Homo sapiens, UniProt O00408)", "assay": "Affinity Biochemical interaction: (inhibition of enzyme activity with [3H]cGMP or [3H]cAMP as the substrate) EUB0002477a PDE2A", "assay_type": "functional"}, "[10]": {"target": "T4, 3',5'-cyclic-AMP phosphodiesterase 4D (Homo sapiens, UniProt Q08499)", "T4 sequence (Q08499 whole entry)": "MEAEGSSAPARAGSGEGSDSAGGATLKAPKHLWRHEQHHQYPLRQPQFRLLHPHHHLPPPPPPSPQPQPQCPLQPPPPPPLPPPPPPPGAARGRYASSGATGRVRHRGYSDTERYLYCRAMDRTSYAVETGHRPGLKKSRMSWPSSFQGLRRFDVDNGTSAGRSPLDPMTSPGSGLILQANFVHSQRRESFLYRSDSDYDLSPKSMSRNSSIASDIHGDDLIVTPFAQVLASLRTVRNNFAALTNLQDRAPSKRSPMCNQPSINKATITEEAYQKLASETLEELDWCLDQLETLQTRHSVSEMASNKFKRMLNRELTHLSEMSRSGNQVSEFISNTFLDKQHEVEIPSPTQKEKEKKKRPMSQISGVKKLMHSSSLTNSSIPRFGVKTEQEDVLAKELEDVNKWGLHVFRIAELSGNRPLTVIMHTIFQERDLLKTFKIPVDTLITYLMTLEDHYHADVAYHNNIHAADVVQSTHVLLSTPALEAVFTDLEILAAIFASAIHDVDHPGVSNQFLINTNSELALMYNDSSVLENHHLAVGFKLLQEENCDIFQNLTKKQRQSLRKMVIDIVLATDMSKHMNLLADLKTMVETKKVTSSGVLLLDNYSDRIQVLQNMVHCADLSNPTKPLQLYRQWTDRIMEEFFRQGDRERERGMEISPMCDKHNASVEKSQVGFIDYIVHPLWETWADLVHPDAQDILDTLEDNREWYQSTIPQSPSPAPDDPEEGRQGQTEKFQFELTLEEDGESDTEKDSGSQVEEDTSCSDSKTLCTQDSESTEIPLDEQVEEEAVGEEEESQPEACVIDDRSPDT", "assay": "Affinity Biochemical interaction: (inhibition of enzyme activity with [3H]cGMP or [3H]cAMP as the substrate) EUB0002477a PDE4D", "assay_type": "functional"}, "[11]": {"target": "High affinity 3',5'-cyclic-AMP phosphodiesterase 7A (Homo sapiens, UniProt Q13946)", "assay": "Affinity Biochemical interaction: (inhibition of enzyme activity with [3H]cGMP or [3H]cAMP as the substrate) EUB0002477a PDE7A", "assay_type": "functional"}, "[12]": {"target": "High affinity cAMP-specific and IBMX-insensitive 3',5'-cyclic phosphodiesterase 8A (Homo sapiens, UniProt O60658)", "assay": "Affinity Biochemical interaction: (inhibition of enzyme activity with [3H]cGMP or [3H]cAMP as the substrate) EUB0002477a PDE8A", "assay_type": "functional"}, "[13]": {"target": "cAMP and cAMP-inhibited cGMP 3',5'-cyclic phosphodiesterase 10A (Homo sapiens, UniProt Q9Y233)", "assay": "Affinity Biochemical interaction: (inhibition of enzyme activity with [3H]cGMP or [3H]cAMP as the substrate) EUB0002477a PDE10A", "assay_type": "functional"}, "[14]": {"target": "Arginase-2, mitochondrial (Homo sapiens, UniProt P78540)", "assay": "Affinity Biochemical interaction: (competitive binding assay with radiolabelled [guanido-14C][…] as substrate) EUB0002484aCl ARG2"}, "[15]": {"target": "T5, Lysine-specific demethylase 4A (Homo sapiens, UniProt O75164)", "T5 sequence (O75164 whole entry)": "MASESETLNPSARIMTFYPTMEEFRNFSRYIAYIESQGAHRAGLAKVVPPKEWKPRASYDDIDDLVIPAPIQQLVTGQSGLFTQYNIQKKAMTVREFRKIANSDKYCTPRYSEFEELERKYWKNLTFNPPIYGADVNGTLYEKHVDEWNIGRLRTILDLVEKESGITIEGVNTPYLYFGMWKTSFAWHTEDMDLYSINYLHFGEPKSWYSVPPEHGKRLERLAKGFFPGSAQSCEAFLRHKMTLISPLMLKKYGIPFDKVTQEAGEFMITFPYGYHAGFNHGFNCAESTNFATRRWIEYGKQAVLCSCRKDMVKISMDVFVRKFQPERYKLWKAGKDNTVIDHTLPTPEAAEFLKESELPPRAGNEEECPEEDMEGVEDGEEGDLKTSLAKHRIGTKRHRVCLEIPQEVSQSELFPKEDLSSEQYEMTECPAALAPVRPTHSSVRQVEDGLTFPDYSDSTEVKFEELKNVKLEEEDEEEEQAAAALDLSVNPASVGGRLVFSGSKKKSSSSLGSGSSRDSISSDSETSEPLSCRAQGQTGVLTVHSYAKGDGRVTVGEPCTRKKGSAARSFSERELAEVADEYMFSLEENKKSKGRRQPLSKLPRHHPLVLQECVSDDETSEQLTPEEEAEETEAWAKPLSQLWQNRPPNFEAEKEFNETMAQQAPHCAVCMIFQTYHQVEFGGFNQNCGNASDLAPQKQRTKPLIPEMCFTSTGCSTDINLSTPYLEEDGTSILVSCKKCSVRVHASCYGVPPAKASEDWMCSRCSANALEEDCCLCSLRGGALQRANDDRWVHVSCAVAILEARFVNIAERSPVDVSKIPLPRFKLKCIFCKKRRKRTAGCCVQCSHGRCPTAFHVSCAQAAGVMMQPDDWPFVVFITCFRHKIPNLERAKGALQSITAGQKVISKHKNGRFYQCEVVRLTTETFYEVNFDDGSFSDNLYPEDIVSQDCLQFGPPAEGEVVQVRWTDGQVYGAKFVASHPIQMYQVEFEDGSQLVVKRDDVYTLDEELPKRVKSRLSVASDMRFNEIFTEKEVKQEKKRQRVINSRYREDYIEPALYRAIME", "assay": "Affinity Biochemical interaction: (AlphaScreen) EUB0002543a KDM4A", "assay_type": "functional"}, "[16]": {"target": "T5, Lysine-specific demethylase 4A", "assay": "Affinity Biochemical interaction: (Biolayer interferometry) EUB0002543a KDM4A"}, "[17]": {"target": "Lysine-specific demethylase 4B (Homo sapiens, UniProt O94953)", "assay": "Affinity Biochemical interaction: (AlphaScreen) EUB0002543a KDM4B", "assay_type": "functional"}, "[18]": {"target": "Lysine-specific demethylase 4C (Homo sapiens, UniProt Q9H3R0)", "assay": "Affinity Biochemical interaction: (AlphaScreen) EUB0002543a KDM4C", "assay_type": "functional"}, "[19]": {"target": "T4, 3',5'-cyclic-AMP phosphodiesterase 4D", "assay": "Affinity Biochemical interaction: ([…]) EUB0002544a PDE4D", "assay_type": "cell-free"}, "[20]": {"target": "NAD-dependent protein deacetylase sirtuin-7 (Homo sapiens, UniProt Q9NRC8)", "assay": "Affinity Biochemical interaction: (inhibition of deacetylase activity, luminescence measurement using the SIRT7 assay kit) EUB0002717a SIRT7", "assay_type": "functional"}, "[21]": {"target": "T6, 3',5'-cyclic-AMP phosphodiesterase 4B (Homo sapiens, UniProt Q07343)", "T6 sequence (Q07343 whole entry)": "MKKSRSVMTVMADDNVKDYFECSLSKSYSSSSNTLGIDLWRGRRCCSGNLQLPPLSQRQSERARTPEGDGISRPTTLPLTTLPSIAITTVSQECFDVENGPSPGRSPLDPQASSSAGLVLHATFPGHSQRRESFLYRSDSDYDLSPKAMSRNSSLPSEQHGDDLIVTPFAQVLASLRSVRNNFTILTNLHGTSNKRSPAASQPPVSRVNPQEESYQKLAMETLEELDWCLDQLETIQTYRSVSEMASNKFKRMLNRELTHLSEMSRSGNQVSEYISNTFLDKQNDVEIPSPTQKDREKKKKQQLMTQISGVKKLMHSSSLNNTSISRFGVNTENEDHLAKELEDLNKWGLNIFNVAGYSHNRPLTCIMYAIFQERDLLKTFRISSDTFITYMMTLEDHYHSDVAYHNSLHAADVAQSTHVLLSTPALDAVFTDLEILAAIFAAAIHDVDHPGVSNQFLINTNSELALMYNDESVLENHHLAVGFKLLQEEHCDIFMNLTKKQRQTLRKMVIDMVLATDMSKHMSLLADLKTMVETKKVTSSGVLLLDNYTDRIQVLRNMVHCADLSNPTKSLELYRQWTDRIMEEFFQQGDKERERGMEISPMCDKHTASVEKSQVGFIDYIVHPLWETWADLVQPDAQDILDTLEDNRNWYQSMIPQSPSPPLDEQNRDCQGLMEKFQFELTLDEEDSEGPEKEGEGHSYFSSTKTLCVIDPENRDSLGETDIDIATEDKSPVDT", "assay": "Affinity Biochemical interaction: (Inhibition of enzyme activity, scintillation proximity assay with radiolabelled [3H]cAMP) EUB0002694a PDE4B", "assay_type": "functional"}, "[22]": {"target": "T7, Nucleotide triphosphate diphosphatase NUDT15 (Homo sapiens, UniProt Q9NV35)", "T7 sequence (Q9NV35 whole entry)": "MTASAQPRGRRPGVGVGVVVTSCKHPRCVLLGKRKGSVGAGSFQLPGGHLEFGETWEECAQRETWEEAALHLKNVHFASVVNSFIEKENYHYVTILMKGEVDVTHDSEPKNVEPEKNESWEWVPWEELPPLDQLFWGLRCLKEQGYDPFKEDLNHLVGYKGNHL", "assay": "Affinity Biochemical interaction: (enzyme-coupled MG (Malachite Green) assay with […]) EUB0002330a NUDT15", "assay_type": "functional"}, "[23]": {"target": "T7, Nucleotide triphosphate diphosphatase NUDT15", "assay": "Affinity Biochemical interaction: (enzyme-coupled MG (Malachite Green) assay with 6-thio-dGTP) EUB0002330a NUDT15", "assay_type": "functional"}, "[24]": {"target": "3',5'-cyclic-AMP phosphodiesterase 4A (Homo sapiens, UniProt P27815)", "assay": "Affinity Biochemical interaction: (radioligand binding assay, inhibition of [3H]cAMP or [3H]cGMP cleavage) EUB0002534a PDE4A"}, "[25]": {"target": "T6, 3',5'-cyclic-AMP phosphodiesterase 4B", "assay": "Affinity Biochemical interaction: (radioligand binding assay, inhibition of [3H]cAMP or [3H]cGMP cleavage) EUB0002534a PDE4B"}, "[26]": {"target": "3',5'-cyclic-AMP phosphodiesterase 4C (Homo sapiens, UniProt Q08493)", "assay": "Affinity Biochemical interaction: (radioligand binding assay, inhibition of [3H]cAMP or [3H]cGMP cleavage) EUB0002534a PDE4C"}, "[27]": {"target": "T4, 3',5'-cyclic-AMP phosphodiesterase 4D", "assay": "Affinity Biochemical interaction: (radioligand binding assay, inhibition of [3H]cAMP or [3H]cGMP cleavage) EUB0002534a PDE4D"}, "[28]": {"target": "sn-1-specific diacylglycerol lipase ABHD11 (Homo sapiens, UniProt Q8NFV4)", "assay": "Affinity Biochemical interaction: (fluorescence-based biochemical gel-based Activity-Based Protein Profiling (ABPP)) EUB0002643a ABHD11", "assay_type": "functional"}, "[29]": {"target": "Protein-arginine deiminase type-4 (Homo sapiens, UniProt Q9UM07)", "sequence (Q9UM07 whole entry)": "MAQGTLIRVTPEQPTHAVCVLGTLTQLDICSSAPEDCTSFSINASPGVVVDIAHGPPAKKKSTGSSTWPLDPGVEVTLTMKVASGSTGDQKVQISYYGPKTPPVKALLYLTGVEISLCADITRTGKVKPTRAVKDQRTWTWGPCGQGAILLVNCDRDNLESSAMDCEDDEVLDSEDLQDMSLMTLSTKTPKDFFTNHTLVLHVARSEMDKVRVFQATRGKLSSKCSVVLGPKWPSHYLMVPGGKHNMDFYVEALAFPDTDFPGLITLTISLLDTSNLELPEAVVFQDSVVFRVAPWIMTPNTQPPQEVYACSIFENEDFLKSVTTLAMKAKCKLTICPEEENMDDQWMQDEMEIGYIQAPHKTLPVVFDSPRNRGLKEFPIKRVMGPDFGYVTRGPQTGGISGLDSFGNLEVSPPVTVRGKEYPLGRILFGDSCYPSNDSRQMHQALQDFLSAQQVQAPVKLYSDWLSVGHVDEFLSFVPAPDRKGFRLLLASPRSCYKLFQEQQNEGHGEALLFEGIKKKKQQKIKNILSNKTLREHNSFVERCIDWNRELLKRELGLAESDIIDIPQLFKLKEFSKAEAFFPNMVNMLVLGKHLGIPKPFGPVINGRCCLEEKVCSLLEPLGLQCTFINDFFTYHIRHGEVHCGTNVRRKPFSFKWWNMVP", "assay": "Affinity Biochemical interaction: (enzyme inhibition, detection of citrullated histone H3 by either immunoblot with LiC or quantitation or an ELISA-based assay using anti-citrullated histone H3 rabbit polyclonal antibody) EUB0002517a PADI4", "assay_type": "functional"}}, "data": [{"smiles": "Nc1ncnc2c1ncn2[C@@H]1O[C@H](C[C@@H](N)CC[C@H](N)C(=O)O)[C@@H](O)[C@H]1O", "note": "[SINEFUNGIN]", "values": [{"measurement": "IC50", "setting": "[1]", "result": 2380, "unit": "nM"}, {"measurement": "IC50", "setting": "[2]", "result": 9100, "unit": "nM"}, {"measurement": "IC50", "setting": "[3]", "result": 310, "unit": "nM"}, {"measurement": "IC50", "setting": "[4]", "result": 690, "unit": "nM"}]}, {"smiles": "COc1ccc(CC[C@H]2CCC[C@@H](CCc3ccc(OC)cc3)N2C[C@@H](O)CO)cc1", "values": [{"measurement": "Ki", "setting": "[5]", "result": 29, "unit": "nM"}]}, {"smiles": "Cc1nnn(C)c1-c1cnc2c3cc4cnn(C)c4cc3n([C@H](c3ccccc3)C3CCOCC3)c2c1", "values": [{"measurement": "IC50", "setting": "[6]", "result": 2.7, "unit": "nM"}]}, {"smiles": "NC(=O)C1CN(CCCCC(c2ccc(F)cc2)c2ccc(F)cc2)CCN1CC(=O)Nc1c(Cl)cc(N)cc1Cl", "note": "(centres undefined) [DRAFLAZINE]", "values": [{"measurement": "Ki", "setting": "[7]", "result": 0.28, "unit": "nM"}, {"measurement": "Ki", "setting": "[8]", "result": 0.94, "unit": "nM"}]}, {"smiles": "C[C@H](Nc1nc2c(cnn2C2CCCC2)c(=O)[nH]1)c1ccc(Cl)cc1", "values": [{"measurement": "IC50", "setting": "[9]", "result": 2.4, "unit": "nM"}, {"measurement": "IC50", "setting": "[10]", "result": 1.3, "unit": "nM"}, {"measurement": "IC50", "setting": "[11]", "result": 2.5, "unit": "nM"}, {"measurement": "IC50", "setting": "[12]", "result": 1, "unit": "nM"}, {"measurement": "IC50", "setting": "[13]", "result": 2.3, "unit": "nM"}]}, {"smiles": "N[C@@H](CCCCB(O)O)C(=O)O", "values": [{"measurement": "Ki", "setting": "[14]", "result": 250, "unit": "nM"}]}, {"smiles": "CC(C)[C@@H]1NC(=O)[C@H](Cc2ccc(O)cc2)NC(=O)[C@@H](CC(=O)O)NC(=O)S[C@@H](C(=O)O)NC(=O)[C@H]([C@H](C)O)NC(=O)[C@H](Cc2ccc(O)cc2)NC(=O)[C@H](Cc2c[nH]c3ccccc23)NC(=O)[C@H](CCCNC(=N)N)NC(=O)[C@H](Cc2c[nH]c3ccccc23)NC(=O)[C@H](C)NC(=O)[C@H](CO)NC(=O)[C@H](CCCNC(=N)N)NC(=O)[C@H]([C@H](C)O)NC(=O)[C@H](CC(N)=O)NC(=O)[C@H](Cc2ccc(O)cc2)NC1=O", "values": [{"measurement": "IC50", "setting": "[15]", "result": 42, "unit": "nM"}, {"measurement": "Kd", "setting": "[16]", "result": 29.8, "unit": "nM"}, {"measurement": "IC50", "setting": "[17]", "result": 33, "unit": "nM"}, {"measurement": "IC50", "setting": "[18]", "result": 39, "unit": "nM"}]}, {"smiles": "C[C@@H](Oc1ccc(CNC(=O)c2cccnc2Oc2ccc3c(c2)OCO3)c(F)c1)C(=O)O", "values": [{"measurement": "IC50", "setting": "[19]", "result": 37, "unit": "nM"}]}, {"smiles": "Nc1cccc(Nc2ncc(-c3ccc(Cl)cc3)o2)c1", "values": [{"measurement": "IC50", "setting": "[20]", "result": 325, "unit": "nM"}]}, {"smiles": "N#Cc1ccc(-c2c3n(c4cccnc24)CCN(C2CC2)C3=O)cc1F", "note": "[PF-06445974]", "values": [{"measurement": "IC50", "setting": "[21]", "result": "< 1", "unit": "nM"}]}, {"smiles": "O=C(c1ccc2[nH]ccc2c1)N1CCN(S(=O)(=O)c2ccc3[nH]c(=O)oc3c2)CC1", "values": [{"measurement": "IC50", "setting": "[22]", "result": 25, "unit": "nM"}, {"measurement": "IC50", "setting": "[23]", "result": 57, "unit": "nM"}]}, {"smiles": "Nc1cc2c3c(c1)C(c1ccccc1)=N[C@@H](NC(=O)c1cccnc1)C(=O)N3CC2", "values": [{"measurement": "IC50", "setting": "[24]", "result": 290, "unit": "nM"}, {"measurement": "IC50", "setting": "[25]", "result": 80, "unit": "nM"}, {"measurement": "IC50", "setting": "[26]", "result": 560, "unit": "nM"}, {"measurement": "IC50", "setting": "[27]", "result": 90, "unit": "nM"}]}, {"smiles": "CCC1CCCCN1C(=O)n1ncc(C(O)(c2ccccc2)c2ccccc2)n1", "note": "(centres undefined)", "values": [{"measurement": "IC50", "setting": "[28]", "result": 15, "unit": "nM"}]}, {"smiles": "COc1cc(C(=O)N2C[C@H](N)CC[C@@H]2C)cc2nc(-c3cc4cccnc4n3CC3CC3)n(C)c12", "values": [{"measurement": "IC50", "setting": "[29]", "result": 98, "unit": "nM"}]}]}
